Several values for one entry are separate records, joined by “and”; a condition that tells them apart may be missing. Identical values can stand only once. Counter-ions that a name gives are not always drawn.
Legend:
nociceptin receptor = target: T1, nociceptin receptor (Homo sapiens, UniProt P41146); test: Nociceptin receptor binding assay ([3H]nociceptin, cell membrane suspension); conditions: [3H]nociceptin 0.08 nM, 25° C., 60 minutes; Ki calculated from IC50 and Kd; read-out: Affinity for nociceptin receptors Ki
T1 construct: expressed in transfected cells
Method: A cell membrane suspension obtained from a human nociceptin-expressing cell was prepared so that it contained 5 to 10 μg/mL of the membrane protein in a Tris buffer [50 mM Tris-HCl (pH 7.8), 5 mM MgCl2, 1 mM EGTA, 0.1% BSA]. To this, [^3H]nociceptin (diluted at the final concentration of 0.08 nM with the Tris buffer) and a tested substance were added and the mixture was incubated at 25° C. for 60 minutes. Using a cell harvester and a washing solution [50 mM Tris-HCl (pH 7.8), 4° C.], the membrane was recovered onto a GF/B filter which had been pretreated with 0.3% PEI, which was then washed further 4 times. The filter was transferred to a vial, to which a scintillator was added, and the radioactivity was measured using a liquid scintillation counter. Noted that a non-specific binding was regarded as a binding in the presence of 10 μM nociceptin, and a specific binding was obtained by subtracting the non-specific binding from the total binding. From a ratio of binding inhibition in the presence of the tested substance, an IC50 value was obtained, and was then used together with the Kd value for [^3H]nociceptin to calculate the K1 value for the tested substance.

μ-receptor = target: T2, μ-receptor (Homo sapiens, UniProt P35372); test: μ-Receptor binding assay ([3H]diprenorphine, cell membrane preparation); conditions: [3H]diprenorphine 0.13 nM, 25° C., 90 minutes; Ki calculated from IC50 and Kd; read-out: Affinity for μ-receptor Ki
T2 construct: purchased Receptor Biology
Method: A human μ-receptor-expressing cell membrane preparation (Receptor Biology) was prepared so that it contained 8.5 μg/mL of the membrane protein in a Tris buffer [50 mM Tris-HCl (pH 7.8), 5 MM MgCl2, 1 mM EGTA, 0.1% BSA]. To this, [^3H]diprenorphine (diluted at the final concentration of 0.13 nM with the Tris buffer) and a tested substance were added and the mixture was incubated at 25° C. for 90 minutes. Using a cell harvester and a washing solution [50 mM Tris-HCl (pH 7.8), 4° C.], the membrane was recovered onto a GF/B filter which had been pretreated with 0.3% PEI, which was then washed further 4 times. The filter was transferred to a vial, to which a scintillator was added, and the radioactivity was measured using a liquid scintillation counter. A non-specific binding was regarded as a binding in the presence of 100 μM naloxone, and a specific binding was obtained by subtracting the non-specific binding from the total binding. From a ratio of binding inhibition in the presence of the tested substance, and IC50 value was obtained, and was then used together with the Kd value for [^3H]diprenorphine to calculate the Ki value of the tested substance.

[1] = test system: acetic acid-induced writhing reactions in mice; test: Acetic acid-writhing test in mice; type: in vivo, mice (Slc:ddY); conditions: 10 nmol/animal intrathecal, male mice, counted over 20 minutes after 0.6% acetic acid intraperitoneally; for Number of writhings (individual animal): animal No. 1-10; for Number of writhings (Mean): mean of 10 animals (saline control 17.67)
Method: Ten male mice (Slc:ddY, 4 to 5 weeks old) were assigned to each group. The dorsal skin of each mouse was incised laterally in a length of approximately 3 cm, and after acclimatizing for 30 minutes or longer a 27G needle fitted on the tip of a silicone tube connected to a microsyringe was inserted into a position around L3-L4, through which 5 μL of a drug solution was infused, whereby effecting an administration into a spinal subarachnoid cavity. The tested substance was dissolved in physiological saline, and administered at 10 nmol/animal. In a control group, physiological saline was administered similarly.
A mouse which had been fasting since the day before the experiment was placed in an observation cage (20×20×15 cm), where it was allowed to be acclimatized over a period of 30 minutes or longer, and then received 100 μL per 10 g body weight of a 0.6% acetic acid solution intraperitoneally via a 27G needle. The number of the writhing reactions with stretching the abdomen was counted over 20 minutes after the administration of acetic acid, and the obtained data were represented as means±standard errors. Only the screening data were subjected to the test for a significant difference by a t test between the two groups of the control and a treatment group or by one-way analysis of variance among multiple groups followed by Dunnett's multiple comparison test, and the significant difference was regarded to be present when p<0.05.

T1 sequence (P41146 whole entry): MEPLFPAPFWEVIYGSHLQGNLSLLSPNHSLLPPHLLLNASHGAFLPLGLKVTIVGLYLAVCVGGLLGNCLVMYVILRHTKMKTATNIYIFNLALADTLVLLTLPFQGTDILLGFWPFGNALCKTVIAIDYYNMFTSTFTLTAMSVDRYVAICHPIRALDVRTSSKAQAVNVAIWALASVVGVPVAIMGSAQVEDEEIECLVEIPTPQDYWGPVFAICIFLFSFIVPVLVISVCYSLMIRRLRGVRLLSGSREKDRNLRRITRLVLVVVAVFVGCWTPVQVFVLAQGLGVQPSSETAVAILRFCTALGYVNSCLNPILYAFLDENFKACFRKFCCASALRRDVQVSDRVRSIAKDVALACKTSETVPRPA
T2 sequence (P35372 whole entry): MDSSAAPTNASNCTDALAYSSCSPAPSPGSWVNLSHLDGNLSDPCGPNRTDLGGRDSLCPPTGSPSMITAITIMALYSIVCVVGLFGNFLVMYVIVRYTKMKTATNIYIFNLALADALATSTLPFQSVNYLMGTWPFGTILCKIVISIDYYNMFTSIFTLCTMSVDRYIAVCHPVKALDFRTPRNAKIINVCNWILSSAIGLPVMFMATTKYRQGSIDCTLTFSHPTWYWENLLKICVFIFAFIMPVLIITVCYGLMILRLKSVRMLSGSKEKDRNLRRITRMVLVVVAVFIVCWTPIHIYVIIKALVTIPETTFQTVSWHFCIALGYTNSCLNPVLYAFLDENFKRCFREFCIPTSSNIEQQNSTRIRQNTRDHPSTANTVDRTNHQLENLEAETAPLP

Compound | Ki (nociceptin receptor) [nM] | Ki (μ-receptor) [nM] | Number of writhings (individual animal) ([1]; listed as Ex. 23, Dihydrochloride) | Number of writhings (Mean) [1] | Number of writhings (individual animal) ([1]; listed as Ex. 46, Trihydrochloride) | Number of writhings (individual animal) ([1]; listed as Ex. 48, Trihydrochloride) | Number of writhings (individual animal) ([1]; listed as Ex. 4, Trihydrochloride)
COc1ccc2nc(C=Cc3ccccn3)nc(NCCCCCCNC(=N)N)c2c1.Cl.Cl [Example 23, N-Amidino-N′-{6-methoxy-2-[2-(2-pyridyl)ethenyl]quinazolin-4-yl}-1,6-hexanediamine Dihydrochloride] | 3 | 19 | 14 and 0 (5×) and 6 and 18 and 28 and 3 | 6.90 |  |  | 
Cc1ccc2nc(C=Cc3ccccn3)nc(NCCCCCCNC(=N)N)c2c1.Cl.Cl.Cl [Example 46, N-Amidino-N′-{6-methyl-2-[2-(2-pyridyl)ethenyl]quinazolin-4-yl}-1,6-hexanediamine Trihydrochloride] | 3 | 23 |  | 4.50 | 0 (4×) and 13 and 6 and 3 and 10 and 4 and 9 |  | 
COc1ccc2nc(C=Cc3ccccn3)nc(NC(C)CCCCCNC(=N)N)c2c1.Cl.Cl.Cl (stereo not drawn) [Example 48, N-Amidino-6-{6-methoxy-2-[2-(2-pyridyl)ethenyl]quinazolin-4-yl}aminoheptylamine Trihydrochloride] |  |  |  | 5.60 |  | 7 and 0 (4×) and 6 and 16 and 1 and 14 and 12 | 
cis-4-Guanidinomethyl-N-{2-[2-(2-pyridyl)ethenyl]-6-methoxyquinazolin-4-yl}cyclohexylamine Trihydrochloride [Example 4] | 8 | 63 |  | 7.90 |  |  | 18 and 12 (2×) and 10 and 0 (2×) and 2 and 11 and 1 and 13

Now from value to compound, other results behind:

Ki (nociceptin receptor) [nM] | Ki (μ-receptor) [nM] | Compound | Number of writhings (individual animal) ([1]; listed as Ex. 23, Dihydrochloride) | Number of writhings (Mean) [1] | Number of writhings (individual animal) ([1]; listed as Ex. 46, Trihydrochloride) | Number of writhings (individual animal) ([1]; listed as Ex. 48, Trihydrochloride) | Number of writhings (individual animal) ([1]; listed as Ex. 4, Trihydrochloride)
6 | 193 | COc1ccc2nc(NC(=O)c3ccc(Cl)cc3)nc(N[C@H]3CCCC[C@H]3NC(=N)N)c2c1 (relative stereo) [Example 2, cis-N-Amidino-2-[2-(4-chlorobenzoylamino)-6-methoxyquinazolin-4-yl]aminocyclohexylamine Dihydrochloride] |  |  |  |  | 
3 | 32 | COc1ccc2nc(C=Cc3ccccn3)nc(N[C@H]3CC[C@@H](CNC(=N)N)C[C@H]3C)c2c1 (relative stereo) [Example 68, cis-4-Guanidinomethyl-cis-2-methyl-N-{6-methoxy-2-[2-(2-pyridyl)ethenyl]quinazolin-4-yl}cyclohexylamine Trihydrochloride] |  |  |  |  | 
9 | 38 | COc1ccc2nc(C=Cc3ccc(Cl)cc3)nc(NCCCCCCNC(=N)N)c2c1 [Example 16, N-Amidino-N′-[2-(4-chlorostyryl)-6-methoxyquinazolin-4-yl]-1,6-hexanediamine Dihydrochloride] |  |  |  |  | 
7 | 30 | COc1ccc2nc(C=Cc3ccccn3)nc(NC[C@H]3CC[C@@H](CNC(=N)N)CC3)c2c1 [Example 44, cis-N-Amidino-N′-{6-methoxy-2-[2-(2-pyridyl)ethenyl]quinazolin-4-yl}-1,4-bis(aminomethyl)cyclohexane Trihydrochloride] |  |  |  |  | 
4 | 22 | COc1ccc2nc(C=Cc3ccccn3)nc(NCCN(CCc3ccccc3)C(=N)N)c2c1 [Example 66, N-Amidino-2-{6-methoxy-2-[2-(2-pyridyl)ethenyl]quinazolin-4-yl}aminoethyl-phenylethylamine Trihydrochloride] |  |  |  |  | 

— US6794389B2, “Quinazoline derivatives and drugs” (Nippon Shinyaku Co., Ltd., priority 2000, dated 2004)
